Calls of active or inactive are those of the source. The rule behind the calls is not given here.
Tested on: CCRIS mutagenicity, Ames/micronucleus/aberration tests
Assay: CCRIS mutagenicity studies
[1] = Test System: AMES SALMONELLA TYPHIMURIUM, Strain/Indicator: TA98, Metabolic Activation: NONE, Method: STANDARD PLATE
[2] = Test System: AMES SALMONELLA TYPHIMURIUM, Strain/Indicator: TA100, Metabolic Activation: NONE, Method: STANDARD PLATE
[3] = Test System: AMES SALMONELLA TYPHIMURIUM, Strain/Indicator: TA97, Metabolic Activation: NONE, Method: PREINCUBATION
[4] = Test System: AMES SALMONELLA TYPHIMURIUM, Strain/Indicator: TA98, Metabolic Activation: NONE, Method: PREINCUBATION
[5] = Test System: AMES SALMONELLA TYPHIMURIUM, Strain/Indicator: TA100, Metabolic Activation: NONE, Method: PREINCUBATION
[6] = Test System: AMES SALMONELLA TYPHIMURIUM, Strain/Indicator: TA1535, Metabolic Activation: NONE, Method: PREINCUBATION

Measured: mutagenic call

Clc1cccc2cc3ccccc3cc12
inactive: [1] inactive; negative | Test System: AMES SALMONELLA TYPHIMURIUM, Strain/Indicator: TA98, Metabolic Activation: RAT, LIVER, S-9, AROCLOR 1254, Method: STANDARD PLATE inactive; negative | [2] inactive; negative | Test System: AMES SALMONELLA TYPHIMURIUM, Strain/Indicator: TA100, Metabolic Activation: RAT, LIVER, S-9, AROCLOR 1254, Method: STANDARD PLATE inactive; negative

Cc1ccc(N=Nc2c(O)ccc3ccccc23)cc1
inactive: [1] inactive; negative | Test System: AMES SALMONELLA TYPHIMURIUM, Strain/Indicator: TA98, Metabolic Activation: RAT, LIVER, S-9, Method: STANDARD PLATE inactive; negative | [2] inactive; negative | Test System: AMES SALMONELLA TYPHIMURIUM, Strain/Indicator: TA100, Metabolic Activation: RAT, LIVER, S-9,, Method: STANDARD PLATE inactive; negative

O[C@H]1C=CC2=C(c3cccc4cccc2c34)[C@@H]1O
active: Test System: AMES SALMONELLA TYPHIMURIUM, Strain/Indicator: TM677, Metabolic Activation: NONE, Method: PREINCUBATION active; positive | Test System: AMES SALMONELLA TYPHIMURIUM, Strain/Indicator: TM677, Metabolic Activation: RAT, LIVER, POSTMITOCHONDRIAL SUPERNATANT, AROCLOR 1254, Method: PREINCUBATION active; positive

Cc1cc(C)c(C)c(C)c1
inactive: Test System: AMES SALMONELLA TYPHIMURIUM, Strain/Indicator: TA97A, Metabolic Activation: RAT LIVER S-9, AROCLOR 1254, Method: STANDARD PLATE inactive; negative | [1] inactive; negative | Test System: AMES SALMONELLA TYPHIMURIUM, Strain/Indicator: TA98, Metabolic Activation: RAT LIVER S-9, AROCLOR 1254, Method: STANDARD PLATE inactive; negative | [2] inactive; negative | Test System: AMES SALMONELLA TYPHIMURIUM, Strain/Indicator: TA100, Metabolic Activation: RAT LIVER S-9, AROCLOR 1254, Method: STANDARD PLATE inactive; negative | Test System: AMES SALMONELLA TYPHIMURIUM, Strain/Indicator: TA102, Metabolic Activation: NONE, Method: STANDARD PLATE inactive; negative | Test System: AMES SALMONELLA TYPHIMURIUM, Strain/Indicator: TA102, Metabolic Activation: RAT LIVER S-9, AROCLOR 1254, Method: STANDARD PLATE inactive; negative
active: Test System: AMES SALMONELLA TYPHIMURIUM, Strain/Indicator: TA97A, Metabolic Activation: NONE, Method: STANDARD PLATE active; positive

Cc1c(C)c2c(c(C)c1OC(=O)CCC(=O)O)CC[C@@](C)(CCC[C@H](C)CCC[C@H](C)CCCC(C)C)O2
inactive: Test System: AMES SALMONELLA TYPHIMURIUM, Strain/Indicator: TA97, Metabolic Activation: HAMSTER, LIVER, S-9, AROCLOR 1254 (10 OR 30%), Method: PREINCUBATION inactive; negative | [3] inactive; negative | Test System: AMES SALMONELLA TYPHIMURIUM, Strain/Indicator: TA97, Metabolic Activation: RAT, LIVER, S-9, AROCLOR 1254 (10 OR 30%), Method: PREINCUBATION inactive; negative | Test System: AMES SALMONELLA TYPHIMURIUM, Strain/Indicator: TA98, Metabolic Activation: HAMSTER, LIVER, S-9, AROCLOR 1254 (10 OR 30%), Method: PREINCUBATION inactive; negative | [4] inactive; negative | Test System: AMES SALMONELLA TYPHIMURIUM, Strain/Indicator: TA98, Metabolic Activation: RAT, LIVER, S-9, AROCLOR 1254 (10 OR 30%), Method: PREINCUBATION inactive; negative | Test System: AMES SALMONELLA TYPHIMURIUM, Strain/Indicator: TA100, Metabolic Activation: HAMSTER, LIVER, S-9, AROCLOR 1254 (10 OR 30%), Method: PREINCUBATION inactive; negative | [5] inactive; negative | Test System: AMES SALMONELLA TYPHIMURIUM, Strain/Indicator: TA100, Metabolic Activation: RAT, LIVER, S-9, AROCLOR 1254 (10 OR 30%), Method: PREINCUBATION inactive; negative | Test System: AMES SALMONELLA TYPHIMURIUM, Strain/Indicator: TA1535, Metabolic Activation: HAMSTER, LIVER, S-9, AROCLOR 1254 (10 OR 30%), Method: PREINCUBATION inactive; negative | [6] inactive; negative | Test System: AMES SALMONELLA TYPHIMURIUM, Strain/Indicator: TA1535, Metabolic Activation: RAT, LIVER, S-9, AROCLOR 1254 (10 OR 30%), Method: PREINCUBATION inactive; negative

CC(=O)Nc1ccc(S(=O)(=O)c2ccc(NC(C)=O)cc2)cc1
inactive: [1] inactive; negative | Test System: AMES SALMONELLA TYPHIMURIUM, Strain/Indicator: TA98, Metabolic Activation: RAT, LIVER, S-9, PCB, Method: STANDARD PLATE inactive; negative | [2] inactive; negative | Test System: AMES SALMONELLA TYPHIMURIUM, Strain/Indicator: TA100, Metabolic Activation: RAT, LIVER, S-9, PCB, Method: STANDARD PLATE inactive; negative

O=[N+]([O-])c1ccccc1Nc1ccccc1
inactive: Test System: AMES SALMONELLA TYPHIMURIUM, Strain/Indicator: TA97, Metabolic Activation: HAMSTER, LIVER, S-9, AROCLOR 1254 (5, 10 OR 30%), Method: PREINCUBATION inactive; negative | [3] inactive; negative | Test System: AMES SALMONELLA TYPHIMURIUM, Strain/Indicator: TA97, Metabolic Activation: RAT, LIVER, S-9, AROCLOR 1254 (10%), Method: PREINCUBATION inactive; negative | Test System: AMES SALMONELLA TYPHIMURIUM, Strain/Indicator: TA97, Metabolic Activation: RAT, LIVER, S-9, AROCLOR 1254 (30%), Method: PREINCUBATION inactive; negative | Test System: AMES SALMONELLA TYPHIMURIUM, Strain/Indicator: TA98, Metabolic Activation: HAMSTER, LIVER, S-9, AROCLOR 1254 (10%), Method: PREINCUBATION inactive; negative | Test System: AMES SALMONELLA TYPHIMURIUM, Strain/Indicator: TA98, Metabolic Activation: HAMSTER, LIVER, S-9, AROCLOR 1254 (30%), Method: PREINCUBATION inactive; negative | [4] inactive; negative | Test System: AMES SALMONELLA TYPHIMURIUM, Strain/Indicator: TA98, Metabolic Activation: RAT, LIVER, S-9, AROCLOR 1254 (10%), Method: PREINCUBATION inactive; negative | Test System: AMES SALMONELLA TYPHIMURIUM, Strain/Indicator: TA98, Metabolic Activation: RAT, LIVER, S-9, AROCLOR 1254 (30%), Method: PREINCUBATION inactive; negative | Test System: AMES SALMONELLA TYPHIMURIUM, Strain/Indicator: TA100, Metabolic Activation: HAMSTER, LIVER, S-9, AROCLOR 1254 (10%), Method: PREINCUBATION inactive; negative | Test System: AMES SALMONELLA TYPHIMURIUM, Strain/Indicator: TA100, Metabolic Activation: HAMSTER, LIVER, S-9, AROCLOR 1254 (30%), Method: PREINCUBATION inactive; negative | [5] inactive; negative | Test System: AMES SALMONELLA TYPHIMURIUM, Strain/Indicator: TA100, Metabolic Activation: RAT, LIVER, S-9, AROCLOR 1254 (10%), Method: PREINCUBATION inactive; negative | Test System: AMES SALMONELLA TYPHIMURIUM, Strain/Indicator: TA100, Metabolic Activation: RAT, LIVER, S-9, AROCLOR 1254 (30%), Method: PREINCUBATION inactive; negative | Test System: AMES SALMONELLA TYPHIMURIUM, Strain/Indicator: TA1535, Metabolic Activation: HAMSTER, LIVER, S-9, AROCLOR 1254 (10%), Method: PREINCUBATION inactive; negative | Test System: AMES SALMONELLA TYPHIMURIUM, Strain/Indicator: TA1535, Metabolic Activation: HAMSTER, LIVER, S-9, AROCLOR 1254 (30%), Method: PREINCUBATION inactive; negative | [6] inactive; negative | Test System: AMES SALMONELLA TYPHIMURIUM, Strain/Indicator: TA1535, Metabolic Activation: RAT, LIVER, S-9, AROCLOR 1254 (10%), Method: PREINCUBATION inactive; negative | Test System: AMES SALMONELLA TYPHIMURIUM, Strain/Indicator: TA1535, Metabolic Activation: RAT, LIVER, S-9, AROCLOR 1254 (30%), Method: PREINCUBATION inactive; negative

C[C@@H]1O[C@@H](O[C@H]2C[C@@H](O)[C@]3(CO)[C@H]4[C@H](O)C[C@]5(C)[C@@H](C6=CC(=O)OC6)CC[C@]5(O)[C@@H]4CC[C@]3(O)C2)[C@H](O)[C@H](O)[C@H]1O
active: Test System: MOUSE LYMPHOMA, Strain/Indicator: L5178Y (TK+/TK-), Metabolic Activation: NONE, Method: SUSPENSION/PLATE active; positive

From PubChem BioAssay AID1259407 (Chemical Carcinogenesis Research Information System (CCRIS), 2018)
